IC50 and Ki data for 22 compounds are collected here from patent US7868026B2, “Therapeutic compounds” (Pfizer Inc., priority 2005, dated 2011).

Holding throughout (assay type): biochemical
Assay [1] deals with T1, CYP3A4 (Homo sapiens, UniProt P08684). Put plainly: Determination of IC50 against CYP3A4 by measurement of inhibition of testosterone metabolism (human liver microsomes, 6-β-OH-testosterone by LC-MS/MS). The following applies: read-out: IC50 (Testo.). Set-up: 0.1 mg/mL human liver microsomes. In outline: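 Human liver microsomes (0.1 mg/mL) incubated with 25 μM testosterone and 1 mM NADPH in 100 mM potassium phosphate, pH 7.4, for eight minutes. 6-β-OH-testosterone measured by LC-MS/MS in MRM mode against an internal standard and quantified from a metabolite standard curve.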
T1 sequence (P08684 whole entry): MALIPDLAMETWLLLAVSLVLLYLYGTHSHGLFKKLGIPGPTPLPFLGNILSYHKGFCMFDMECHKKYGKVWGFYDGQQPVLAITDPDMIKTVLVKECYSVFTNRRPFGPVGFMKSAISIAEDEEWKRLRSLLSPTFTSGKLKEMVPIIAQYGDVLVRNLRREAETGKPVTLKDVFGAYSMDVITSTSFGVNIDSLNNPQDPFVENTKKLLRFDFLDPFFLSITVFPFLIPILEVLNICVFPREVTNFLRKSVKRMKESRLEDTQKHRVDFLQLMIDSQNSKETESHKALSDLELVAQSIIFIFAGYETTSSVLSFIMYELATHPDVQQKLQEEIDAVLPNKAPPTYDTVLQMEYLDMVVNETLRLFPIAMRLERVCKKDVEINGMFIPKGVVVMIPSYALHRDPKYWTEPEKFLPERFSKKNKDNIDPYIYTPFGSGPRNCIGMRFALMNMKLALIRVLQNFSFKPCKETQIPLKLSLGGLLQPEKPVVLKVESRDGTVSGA

Assay [2] deals with T1, CYP3A4. Put plainly: Determination of compound Kiapp against recombinant CYP3A4 enzyme (BFC fluorescent substrate). In outline: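 Recombinant CYP3A4 (5.5 or 8 nM, with or without b5 depending on source) pre-incubated with inhibitor ≥30 min at room temperature in 100 mM sodium phosphate pH 7.0, 5 mM TCEP, 2% DMF. Reaction started with 200 uM NADPH and 5 uM BFC; initial fluorescence rates over 5 min fitted to Morrison tight-binding (non-partial) or Szedlacsek (partial) equations for Kiapp.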

Assay [3] addresses T1, CYP3A4. Put plainly: Determination of IC50 against CYP3A4 by measurement of inhibition of midazolam metabolism (human liver microsomes, 1-hydroxymidazolam by LC-MS/MS). Set-up: 0.1 mg/mL human liver microsomes. The following applies: 2 μM midazolam, 0.1 mg/mL human liver microsomes. In outline: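 Human liver microsomes (0.1 mg/mL) incubated 8 min with 2 μM midazolam and 1 mM NADPH in 100 mM potassium phosphate, pH 7.4. 1-Hydroxymidazolam quantified by LC-MS/MS (MRM) as peak area ratio to internal standard against a metabolite standard curve.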
Background: Microsomes from liver hold many membrane-bound enzymes, among them those of drug oxidation.

Where [4] appears, read: Baculo. enzyme preparation, read-out: Kiapp (BFC, Baculo.).
Where [5] appears, read: Super. enzyme preparation, read-out: Kiapp (BFC, Super.).

Like-named read-outs stand apart in the source and are kept apart here. Bounds are passed on as bounds.

The term IC50 denotes the concentration needed to halve the response being measured. Consider `O=C(c1ccccc1S(=O)(=O)Nc1cccnc1)N1CCN(c2ccccn2)CC1` [Example 62, N-pyridin-3-yl-2-[(4-pyridin-2-ylpiperazin-1-yl)carbonyl]benzenesulfonamide], for which the IC50 in assay [1] was found to be 211 nM; in assay [3], 184 nM. For the same compound, the Ki in assay [2] (setting [4]) was greater than 1000 nM; in assay [2] (setting [5]), 83.3 nM.

Turning to `CCCCNC(=O)c1ccccc1S(=O)(=O)Nc1cccnc1` [Example 63, N-butyl-2-[(pyridin-3-ylamino)sulfonyl]benzamide], the results for the IC50 in assay [1] and in assay [3] were 84.1 nM and 84.2 nM, respectively. Moreover, the Ki is 449 nM in assay [2] (setting [4]) and 42.4 nM in assay [2] (setting [5]).

As for `O=C(NCC1CCCC1)c1ccccc1S(=O)(=O)Nc1cccnc1` [Example 64, N-(cyclopentylmethyl)-2-[(pyridin-3-ylamino)sulfonyl]benzamide], the IC50 in assay [1] came out at 31.8 nM; in assay [3] it was 30.5 nM. Also, the Ki in assay [2] (setting [4]) is 190 nM; in assay [2] (setting [5]) it was 12.8 nM.

Turning to `O=C(NC1CCC1)c1ccccc1S(=O)(=O)Nc1cccnc1` [Example 65, N-cyclobutyl-2-[(pyridin-3-ylamino)sulfonyl]benzamide], the IC50 in assay [1] came to 214 nM; in assay [3], 254 nM. Besides, the Ki in assay [2] (setting [4]) worked out at 920 nM.

Take `O=C(NCCc1ccccn1)c1ccccc1S(=O)(=O)Nc1cccnc1` [Example 66, 2-[(pyridin-3-ylamino)sulfonyl]-N-(2-pyridin-2-ylethyl)benzamide]: the IC50 in assay [1] was found to be 302 nM; in assay [3], 146 nM. Further, the figures for the Ki in assay [2] (setting [4]) and in assay [2] (setting [5]) were greater than 1000 nM and 210 nM, respectively.

Regarding `O=C(c1ccccc1S(=O)(=O)Nc1cccnc1)N1CCCCC1` [Example 67, 2-(piperidin-1-ylcarbonyl)-N-pyridin-3-ylbenzenesulfonamide], the values for the IC50 in assay [1] and in assay [3] were 247 nM and 110 nM, respectively. For the same compound, the results for the Ki in assay [2] (setting [4]) and in assay [2] (setting [5]) were 844 nM and 62 nM, respectively.

As for `CN(CCc1ccccc1)C(=O)c1ccccc1S(=O)(=O)Nc1cccnc1` [Example 68, N-methyl-N-(2-phenylethyl)-2-[(pyridin-3-ylamino)sulfonyl]benzamide], the values for the IC50 in assay [1] and in assay [3] were 36 nM and 17 nM, respectively. Besides, in assay [2] (setting [4]), the Ki was 116 nM.

Consider `O=C(NCCCc1ccccn1)c1ccccc1S(=O)(=O)Nc1cccnc1` [Example 69, 2-[(pyridin-3-ylamino)sulfonyl]-N-(3-pyridin-2-ylpropyl)benzamide], for which the IC50 stood at 179 nM in assay [1] and 105 nM in assay [3]. Moreover, in assay [2] (setting [4]), the Ki is greater than 1000 nM.

For the compound `O=C(NCc1cccc(OC(F)F)c1)c1ccccc1S(=O)(=O)Nc1cccnc1` [Example 71, N-[3-(difluoromethoxy)benzyl]-2-[(pyridin-3-ylamino)sulfonyl]benzamide], the half-inhibitory concentration (IC50) in assay [1] is less than 3 nM; in assay [3], 29 nM. Also, the figures for the Ki in assay [2] (setting [4]) and in assay [2] (setting [5]) were 245 nM and 5.1 nM, respectively.

For the compound `CCOc1ccccc1CNC(=O)c1ccccc1S(=O)(=O)Nc1cccnc1` [Example 72, N-(2-ethoxybenzyl)-2-[(pyridin-3-ylamino)sulfonyl]benzamide], the IC50 in assay [1] was less than 3 nM; in assay [3], 27 nM. Also, the results for the Ki in assay [2] (setting [4]) and in assay [2] (setting [5]) were 164 nM and 12.9 nM, respectively.

As to `CN(Cc1ccccc1F)C(=O)c1ccccc1S(=O)(=O)Nc1cccnc1` [Example 73, N-(2-fluorobenzyl)-N-methyl-2-[(pyridin-3-ylamino)sulfonyl]benzamide], the values for the half-inhibitory concentration (IC50) in assay [1] and in assay [3] were less than 3 nM and 38 nM, respectively. For the same compound, the Ki amounted to 124 nM in assay [2] (setting [4]) and 10.7 nM in assay [2] (setting [5]).

As for `Cc1ccccc1CNC(=O)c1ccccc1S(=O)(=O)Nc1cccnc1` [Example 74, N-(2-methylbenzyl)-2-[(pyridin-3-ylamino)sulfonyl]benzamide], the figures for the IC50 in assay [1] and in assay [3] were less than 3 nM and 23 nM, respectively. In addition, the Ki in assay [2] (setting [4]) is 174 nM; in assay [2] (setting [5]), 4.8 nM.

Consider `Cc1ccccc1CCNC(=O)c1ccccc1S(=O)(=O)Nc1cccnc1` [Example 75, N-[2-(2-methylphenyl)ethyl]-2-[(pyridin-3-ylamino)sulfonyl]benzamide], for which the IC50 in assay [1] worked out at 13 nM; in assay [3], 16 nM. Besides, the Ki in assay [2] (setting [4]) was determined as 43 nM; in assay [2] (setting [5]) it was 2.4 nM.

As to `Cc1cccc(CCNC(=O)c2ccccc2S(=O)(=O)Nc2cccnc2)c1` [Example 76, N-[2-(3-methylphenyl)ethyl]-2-[(pyridin-3-ylamino)sulfonyl]benzamide], the IC50 in assay [1] amounted to 29 nM; in assay [3] it was 24 nM. The Ki amounted to 76.7 nM in assay [2] (setting [4]) and 9.4 nM in assay [2] (setting [5]).

Take `O=C(NCCc1ccccc1)c1ccccc1S(=O)(=O)Nc1cccnc1` [Example 77, N-(2-phenylethyl)-2-[(pyridin-3-ylamino)sulfonyl]benzamide]: the IC50 was 192 nM in assay [1] and 23 nM in assay [3]. Besides, the values for the Ki in assay [2] (setting [4]) and in assay [2] (setting [5]) were 131 nM and 5.6 nM, respectively.

Consider `CCN(Cc1ccccc1)C(=O)c1ccccc1S(=O)(=O)Nc1cccnc1` [Example 78, N-benzyl-N-ethyl-2-[(pyridin-3-ylamino)sulfonyl]benzamide], for which the values for the IC50 in assay [1] and in assay [3] were greater than 750 nM and 22 nM, respectively. Also, the Ki in assay [2] (setting [4]) is 158 nM; in assay [2] (setting [5]) it was 13.8 nM.

For the compound `Cc1ccc(CNC(=O)c2ccccc2S(=O)(=O)Nc2cccnc2)cc1` [Example 79, N-(4-methylbenzyl)-2-[(pyridin-3-ylamino)sulfonyl]benzamide], the concentration for half-maximal inhibition (IC50) in assay [1] was 177 nM; in assay [3], 30 nM. Moreover, the figures for the Ki in assay [2] (setting [4]) and in assay [2] (setting [5]) were 144 nM and 26.2 nM, respectively.

As to `Cc1cccc(CNC(=O)c2ccccc2S(=O)(=O)Nc2cccnc2)c1` [Example 80, N-(3-methylbenzyl)-2-[(pyridin-3-ylamino)sulfonyl]benzamide], the IC50 in assay [1] amounted to 71 nM; in assay [3], 25 nM. Also, the Ki in assay [2] (setting [4]) is 206 nM; in assay [2] (setting [5]), 4.1 nM.

In the case of `CNC(=O)c1ccc(CNC(=O)c2ccccc2S(=O)(=O)Nc2cccnc2)cc1` [Example 81, N-{4-[(methylamino)carbonyl]benzyl}-2-[(pyridin-3-ylamino)sulfonyl]benzamide], the IC50 in assay [1] was less than 3 nM; in assay [3], 501 nM. Besides, the Ki in assay [2] (setting [4]) was greater than 1000 nM; in assay [2] (setting [5]) it was 276 nM.

Consider `O=C(NCc1ccc2c(c1)CCO2)c1ccccc1S(=O)(=O)Nc1cccnc1` [Example 82, N-(2,3-dihydro-1-benzofuran-5-ylmethyl)-2-[(pyridin-3-ylamino)sulfonyl]benzamide], for which the half-inhibitory concentration (IC50) worked out at 25 nM in assay [1] and 28 nM in assay [3]. The Ki in assay [2] (setting [4]) was determined as 743 nM; in assay [2] (setting [5]) it was 20.9 nM.

Turning to `O=C(c1ccccc1S(=O)(=O)Nc1cccnc1)N1CCc2ccccc2C1` [Example 83, 2-(3,4-dihydroisoquinolin-2(1H)-ylcarbonyl)-N-pyridin-3-ylbenzenesulfonamide], the IC50 in assay [1] was 28 nM; in assay [3], 35 nM. Also, the Ki in assay [2] (setting [4]) stood at 127 nM; in assay [2] (setting [5]) it was 12.8 nM.

Turning to `CN(C)Cc1ccc(CNC(=O)c2ccccc2S(=O)(=O)Nc2cccnc2)cc1` [Example 84, N-{4-[(dimethylamino)methyl]benzyl}-2-[(pyridin-3-ylamino)sulfonyl]benzamide], the IC50 is 28 nM in assay [1] and greater than 750 nM in assay [3]. Moreover, the Ki was greater than 1000 nM in assay [2] (setting [4]) and 464 nM in assay [2] (setting [5]).
